One assay has as its system SMN2 mRNA. Kind of assay: Splicing RT-qPCR gene panel, SMN2 canonical junction (CJ) mRNA. The class given is cell-based, human. Conditions: Homo sapiens, Tables 4A/4B, read-out: SMN2 (IC50, decrease in CJ mRNA, gene panel). In a few lines:
(§1)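 A673/K562, 24 h cpd, 11-pt 3-fold from 10 uM, DMSO ≤0.25%. Lysis, direct RT-qPCR of CJ isoform, ≥duplicate. GAPDH/GUSB/PPIA norm, ΔΔCt vs DMSO → RQ → % response.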
(In general: In qPCR the cycle at which signal appears reflects the starting amount.)

The test system of a further assay is HTT mRNA. Kind of assay: Splicing RT-qPCR gene panel, HTT canonical junction (CJ) mRNA. The format is cell-based, human. Conditions: Homo sapiens, Tables 4A/4B, read-out: HTT (IC50, decrease in CJ mRNA, gene panel). In a few lines: as §1
Another assay deals with MYB. Nature of the assay: Protein abundance, HiBit-assay system (Promega), MYB. The format is cell-based. Conditions: Table 6; HiBiT-modified K562 cells, 24 hours. The source says:
In some embodiments, a compound of Formula (I) or (II) or a pharmaceutically acceptable salt thereof, e.g., as described herein, modulates the expression of a target protein (e.g., HTT or MYB) in a reference cell or sample. In an embodiment, a compound of Formula (I) or (II) or a pharmaceutically acceptable salt thereof, e.g., as described herein, increases the expression of a target protein (e.g., HTT or MYB) in a reference cell or sample. In an embodiment, a compound of Formula (I) or (II) or a pharmaceutically acceptable salt thereof, e.g., as described herein, decreases the expression of a target protein (e.g., HTT or MYB) in a reference cell or sample. The effect of an exemplary compound of Formula (I) or (II) on protein abundance may be measured using a standard assay for measuring protein abundance, such as the HiBit-assay system (Promega). In this assay, percent response for each respective cell line may be as calculated at each compound concentration as follows: % response=100*(S−PC)/(NC−PC). For the normalized response at each concentration, a four-parameter logistical regression may be fit to the data and the response may be interpolated at the 50% value to determine a concentration for protein abundance at 50% (IC50) an untreated control. In an embodiment, a compound of Formula (I) or (II) or a pharmaceutically acceptable salt thereof, e.g., as described herein, has a protein abundance response less than 100 nM. In an embodiment, a compound of Formula (I) or (II) or a pharmaceutically acceptable salt thereof, e.g., as described herein, has a protein abundance response between 100-1000 nM. In an embodiment, a compound of Formula (I) or (II) or a pharmaceutically acceptable salt thereof, e.g., as described herein, has a protein abundance response greater than 1000 nM. In an embodiment, a compound of Formula (I) or (II) or a pharmaceutically acceptable salt thereof, e.g., as described herein, has a protein abundance response greater than 10 uM. In an embodiment, a compound of Formula (I) or (II) or a pharmaceutically acceptable salt thereof, e.g., as described herein, modulates the protein abundance of a target protein by about 1%, 5%, 10%, 15%, 20%, 25%, 30%, 35%, 40%, 45%, 50%, 55%, 60%, 65%, 70%, 75%, 80%, 85%, 90%, 95%, 99% or more, e.g., compared with a reference compound.

The subject of a further assay is Target C mRNA. Kind of assay: Splicing RT-qPCR gene panel, Target C canonical junction (CJ) mRNA. Conditions: Homo sapiens, Tables 4A/4B, read-out: Target C (IC50, decrease in CJ mRNA, gene panel). The format is cell-based, human. An outline of the steps: as §1

Counter-ions that a name gives are not always drawn. A value given as a limit tells only on which side of the number the result lay.

As a reminder, the IC50 is the concentration needed to halve the response being measured. With `Cc1cn2nc(NC(=O)c3ccc(C4CCNCC4)c4cc(C)oc34)cc(C)c2n1` [Compound 118], the IC50 in the assay on SMN2 mRNA is 100 to 1000 nM; in the assay with HTT mRNA, 1000 to 10000 nM; in the assay with MYB, < 100 nM; with Target C mRNA, > 10000 nM.

Take `Cc1cn2nc(NC(=O)c3ccc(C4CCNCC4)c4ccoc34)cc(C)c2n1` [Compound 119]: the concentration for half-maximal inhibition (IC50) is 100 to 1000 nM in the assay with SMN2 mRNA, 1000 to 10000 nM in the assay with HTT mRNA, 1000 to 10000 nM in the assay with MYB and > 10000 nM in the assay on Target C mRNA.

Turning to `Cc1cn2cc(NC(=O)c3ccc(N4CCNCC4)c4nc(C)oc34)cc(F)c2n1` [Compound 140], the IC50 in the assay on SMN2 mRNA is 100 to 1000 nM; in the assay on HTT mRNA, 1000 to 10000 nM; with MYB, 1000 to 10000 nM; in the assay with Target C mRNA it was 1000 to 10000 nM.

For the molecule `Cc1cn2cc(NC(=O)c3ccc(N4CCNCC4)c4oc(C)nc34)cc(F)c2n1` [Compound 141], the IC50 in the assay on SMN2 mRNA was < 100 nM; with HTT mRNA, < 100 nM; with MYB, 100 to 1000 nM; with Target C mRNA, 100 to 1000 nM.

Consider `Cc1cn2cc(NC(=O)c3ccc(N4CCNCC4)c4cc(C)oc34)cc(F)c2n1` [Compound 142], for which the 50% inhibitory concentration (IC50) in the assay with SMN2 mRNA is < 100 nM; in the assay with HTT mRNA it was 1000 to 10000 nM; in the assay with MYB it was < 100 nM; in the assay on Target C mRNA it was 100 to 1000 nM.

In the case of `Cc1cn2cc(NC(=O)c3ccc(N4CCNCC4)c4cn(C)nc34)cc(F)c2n1` [Compound 143, N-{8-fluoro-2-methylimidazo[1,2-a]pyridin-6-yl}-2-methyl-4-(piperazin-1-yl) indazole-7-carboxamide], the 50% inhibitory concentration (IC50) is < 100 nM in the assay on SMN2 mRNA, < 100 nM in the assay on HTT mRNA, < 100 nM with MYB and 100 to 1000 nM in the assay on Target C mRNA.

Consider `Cc1cn2cc(NC(=O)c3ccc(C4CCNCC4)c4cc(C)oc34)cc(F)c2n1` [Compound 145], for which the IC50 with SMN2 mRNA is < 100 nM; with HTT mRNA, 1000 to 10000 nM; in the assay with MYB, < 100 nM; in the assay with Target C mRNA it was 100 to 1000 nM.

On to `Cc1cn2nc(NC(=O)c3ccc(N4CCNCC4)c4cc(C)oc34)cc(C)c2n1` [Compound 148], for which the 50% inhibitory concentration (IC50) with SMN2 mRNA lay in the range of 100 to 1000 nM; in the assay on HTT mRNA it was 1000 to 10000 nM; in the assay on MYB, 1000 to 10000 nM; in the assay on Target C mRNA, 1000 to 10000 nM.

Regarding `Cc1cn2cc(NC(=O)c3ccc(C4CCNCC4)c4ccoc34)cc(F)c2n1` [Compound 149], the half-inhibitory concentration (IC50) was < 100 nM with SMN2 mRNA, 1000 to 10000 nM with HTT mRNA, < 100 nM with MYB and > 10000 nM with Target C mRNA.

With `Cc1cn2cc(NC(=O)c3ccc(N4CCN(C)CC4)c4cc(C)oc34)cc(F)c2n1` [Compound 189], the concentration for half-maximal inhibition (IC50) with SMN2 mRNA is < 100 nM; with HTT mRNA, 1000 to 10000 nM; in the assay on MYB, 100 to 1000 nM; with Target C mRNA it was 1000 to 10000 nM.

As for `Cc1cn2cc(NC(=O)c3ccc(N4CCNC(C)C4)c4cc(C)oc34)cc(F)c2n1` (centres unmarked) [Compound 190], the half-maximal inhibitory concentration (IC50) with SMN2 mRNA was 100 to 1000 nM; with HTT mRNA, 100 to 1000 nM; in the assay with MYB it was < 100 nM; in the assay with Target C mRNA, 1000 to 10000 nM.

In the case of `CCn1cc2c(N3CC[C@@H](NC)C3)ccc(C(=O)Nc3cc(Cl)c4nc(C)cn4c3)c2n1` [Compound 556, N-{8-chloro-2-methylimidazo[1,2-a]pyridin-6-yl}-2-ethyl-4-[(3R)-3-(methylamino)pyrrolidin-1-yl]indazole-7-carboxamide], in the assay with MYB, the IC50 was in the range of 1000 to 10000 nM.

With `CCn1cc2c(N3CCC(N)(CC)CC3)cc(F)c(C(=O)Nc3cc(F)c4nc(C)cn4c3)c2n1` [Compound 557, 4-(4-amino-4-ethylpiperidin-1-yl)-2-ethyl-6-fluoro-N-{8-fluoro-2-methylimidazo[1,2-a]pyridin-6-yl}indazole-7-carboxamide], the IC50 in the assay on MYB is < 100 nM.

Consider `CCn1cc2c(N3CCC(N[C@H]4C[C@@H](O)C4)CC3)ccc(C(=O)Nc3cc(F)c4nc(C)cn4c3)c2n1` [Compound 559, 2-ethyl-N-{8-fluoro-2-methylimidazo[1,2-a]pyridin-6-yl}-4-(4-{[(1s,3s)-3-hydroxycyclobutyl]amino}piperidin-1-yl) indazole-7-carboxamide], for which, in the assay on MYB, the 50% inhibitory concentration (IC50) was < 100 nM.

With `CCn1cc2c(N3CCC(N[C@H]4C[C@H](O)C4)CC3)ccc(C(=O)Nc3cc(F)c4nc(C)cn4c3)c2n1` [Compound 560, 2-ethyl-N-{8-fluoro-2-methylimidazo[1,2-a]pyridin-6-yl}-4-(4-{[(1r,3r)-3-hydroxycyclobutyl]amino}piperidin-1-yl) indazole-7-carboxamide], in the assay with MYB, the concentration for half-maximal inhibition (IC50) is < 100 nM.

In the case of `Cc1cn2cc(NC(=O)c3ccc(N4CC[C@@H](N5CCNCC5)C4)c4cn(C)nc34)cc(F)c2n1` [Compound 562, N-{8-fluoro-2-methylimidazo[1,2-a]pyridin-6-yl}-2-methyl-4-[(3R)-3-(piperazin-1-yl)pyrrolidin-1-yl]indazole-7-carboxamide hydrochloride], in the assay with MYB, the half-maximal inhibitory concentration (IC50) is > 10000 nM.

`Cc1cn2cc(NC(=O)c3ccc(N4CC5NC5C4)c4cn(C)nc34)cc(F)c2n1` (centres unmarked) [Compound 563, 4-{3,6-diazabicyclo[3.1.0]hexan-3-yl}-N-{8-fluoro-2-methylimidazo[1,2-a]pyridin-6-yl}-2-methylindazole-7-carboxamide]: the concentration for half-maximal inhibition (IC50) in the assay with MYB is < 100 nM.

Regarding `Cc1cn2cc(NC(=O)c3ccc(N4C5CNCC54)c4cn(C)nc34)cc(F)c2n1` (centres unmarked) [Compound 564, 4-{3,6-diazabicyclo[3.1.0]hexan-6-yl}-N-{8-fluoro-2-methylimidazo[1,2-a]pyridin-6-yl}-2-methylindazole-7-carboxamide], the IC50 in the assay on MYB fell in the range of 100 to 1000 nM.

On to `CCn1cc2c(N3CCNCC3)ccc(C(=O)Nc3cc(F)c4nc(C)c(F)n4c3)c2n1` [Compound 565, N-{3,8-difluoro-2-methylimidazo[1,2-a]pyridin-6-yl}-2-ethyl-4-(piperazin-1-yl) indazole-7-carboxamide; trifluoroacetic acid], for which, in the assay on MYB, the IC50 fell in the range of 1000 to 10000 nM.

In the assay on MYB, `CCn1cc2c(N3CCNCC3)ccc(C(=O)Nc3cn4cc(C)nc4c(Oc4ccccc4)n3)c2n1` [Compound 566, 2-ethyl-N-{2-methyl-8-phenoxyimidazo[1,2-a]pyrazin-6-yl}-4-(piperazin-1-yl) indazole-7-carboxamide] had an IC50 of 100 to 1000 nM.

In the assay with MYB, `Cc1cn2cc(NC(=O)c3ccc(N4CC[C@@H](NC56CC(C5)C6)C4)c4cn(C)nc34)cc(F)c2n1` [Compound 568, 4-[(3R)-3-{bicyclo[1.1.1]pentan-1-ylamino}pyrrolidin-1-yl]-N-{8-fluoro-2-methylimidazo[1,2-a]pyridin-6-yl}-2-methylindazole-7-carboxamide] yielded an IC50 of 1000 to 10000 nM.

With `CCn1cc2c(N3CCC(NC4CC4)C3)cc(F)c(C(=O)Nc3cc(F)c4nc(C)cn4c3)c2n1` (centres unmarked) [Compound 569, 4-[3-(cyclopropylamino)pyrrolidin-1-yl]-2-ethyl-6-fluoro-N-{8-fluoro-2-methylimidazo[1,2-a]pyridin-6-yl}indazole-7-carboxamide], the IC50 in the assay on MYB was < 100 nM.

As for `Cc1cn2cc(NC(=O)c3c(F)cc(N4CC[C@@H](NC5CC5)C4)c4cn(C)nc34)cc(F)c2n1` [Compound 571, 4-[(3R)-3-(cyclopropylamino)pyrrolidin-1-yl]-6-fluoro-N-{8-fluoro-2-methylimidazo[1,2-a]pyridin-6-yl}-2-methylindazole-7-carboxamide], the IC50 in the assay with MYB was < 100 nM.

In turn, `Cc1cn2cc(NC(=O)c3ccc(N4CC[C@@H](NCc5cnc(Cl)nc5)C4)c4cn(C)nc34)cc(F)c2n1` [Compound 573, 4-[(3R)-3-{[(2-chloropyrimidin-5-yl)methyl]amino}pyrrolidin-1-yl]-N-{8-fluoro-2-methylimidazo[1,2-a]pyridin-6-yl}-2-methylindazole-7-carboxamide] returned an IC50 in the assay with MYB of 1000 to 10000 nM.

In turn, `Cc1cn2cc(NC(=O)c3ccc(N4CCC(C)(NC(C)C)C4)c4cn(C)nc34)cc(F)c2n1` (centres unmarked) [Compound 574] had a concentration for half-maximal inhibition (IC50) in the assay with MYB of 100 to 1000 nM.

For the molecule `CCn1cc2c(N3CCNCC3)ccc(C(=O)Nc3cc(F)c4ncccc4c3)c2n1` [Compound 575], the IC50 with MYB was in the range of 1000 to 10000 nM.

For the origin of these results see US20250154169A1, “COMPOUNDS AND METHODS FOR MODULATING SPLICING” (REMIX THERAPEUTICS INC., priority 2021, published 2025).
